This is an account of results in article PMC4076017 (ACS Chemical Biology, 2014).

“And” between values parts separate entries of the source, which are not always exact repeats. Identical values can stand only once.

The nature of data set [1]: LC-MS stability in conditions that recapitulate the crystallization conditions. The conditions noted are these: conditions that recapitulate the crystallization conditions (pH and time). In kind it is physicochemical.
Data set [2] has as its target T1, BaDHPS (Bacillus anthracis, UniProt Q81VW8). The format is biochemical.
In data set [3] the target is T2, SaDHPS (Staphylococcus aureus, UniProt O05701). Description: Michaelis-Menten kinetics in the presence of compound 11. The conditions noted are these: pABA 0 to 10 μM. The format is biochemical.
A short description of a further data set: Antimicrobial activity. In kind it is cell-based.
The target of data set [4] is T3, YpDHPS (Yersinia pestis, UniProt A0A2S9PLG4). The format is biochemical.
A short description of another data set: Aqueous solubility. The format is physicochemical.
The target of data set [5] is T1, BaDHPS. Description: biochemical. In kind it is binding.
Data set [6] deals with T1, BaDHPS. Description: biochemical.
The target in data set [7] is T2, SaDHPS. Nature of the data set: DHPS enzyme inhibition assay. The format is biochemical.
For data set [8], the target named is T3, YpDHPS. Description: biochemical.

T2 sequence (O05701 whole entry): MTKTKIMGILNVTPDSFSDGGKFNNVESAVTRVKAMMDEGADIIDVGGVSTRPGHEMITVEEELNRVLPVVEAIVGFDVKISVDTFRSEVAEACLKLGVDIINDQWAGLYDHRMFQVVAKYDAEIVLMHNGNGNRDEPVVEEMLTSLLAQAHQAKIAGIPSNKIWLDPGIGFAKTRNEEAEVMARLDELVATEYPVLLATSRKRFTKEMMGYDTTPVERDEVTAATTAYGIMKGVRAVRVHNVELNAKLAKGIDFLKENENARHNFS
T1 sequence (Q81VW8 1-280): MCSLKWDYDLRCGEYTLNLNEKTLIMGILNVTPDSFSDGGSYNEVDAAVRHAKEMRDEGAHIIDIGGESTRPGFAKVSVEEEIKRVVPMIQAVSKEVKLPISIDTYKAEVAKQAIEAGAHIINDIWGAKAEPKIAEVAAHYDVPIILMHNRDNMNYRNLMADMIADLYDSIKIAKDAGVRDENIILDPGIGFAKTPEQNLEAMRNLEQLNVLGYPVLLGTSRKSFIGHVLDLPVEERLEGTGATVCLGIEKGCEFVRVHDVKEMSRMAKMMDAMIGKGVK
T3 sequence (A0A2S9PLG4 1-277): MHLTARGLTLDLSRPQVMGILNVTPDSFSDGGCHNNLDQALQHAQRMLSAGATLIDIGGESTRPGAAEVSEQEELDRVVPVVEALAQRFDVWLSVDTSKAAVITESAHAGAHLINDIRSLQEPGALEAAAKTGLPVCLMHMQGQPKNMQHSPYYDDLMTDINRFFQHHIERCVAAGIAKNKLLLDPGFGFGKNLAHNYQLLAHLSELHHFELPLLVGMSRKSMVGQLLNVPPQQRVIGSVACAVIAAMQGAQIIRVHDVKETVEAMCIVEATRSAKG

As a reminder, the Kd is the free concentration of one partner at which half of the binding sites on the other are occupied at equilibrium, for simple one-to-one binding. Broadly, the IC50 is the concentration that inhibits the measured activity by half. A higher IC50 goes with weaker potency in that assay. What is called inhibition is the drop in the measured response relative to a control, in per cent. `FC(F)(F)c1ccc(/C=N/Cc2ccc(C(F)(F)F)cc2)cc1` [Compound 11, (E)-N-(4-(Trifluoromethyl)benzylidene)-1-(4-(trifluoromethyl)phenyl) Methanamine]: the “stability by liquid chromatography-mass spectrometric analysis” value in data set [1] was “stable”. In addition, the Kmobs at BaDHPS [2] was 1.0 µM and 0.74 µM; at SaDHPS [3] (50 μM compd 11, DHPP 20 μM) it was 2.7 µM; on SaDHPS [3] (100 μM compd 11, DHPP 20 μM), 0.38 µM; at YpDHPS [4], 1.8 µM and 1.2 µM. For the same molecule, the Vmaxobs on BaDHPS [2] is 106.7 nM/min and 70.81 nM/min; on SaDHPS [3] (50 μM compd 11, DHPP 20 μM), 211.2 nM/min; on SaDHPS [3] (100 μM compd 11, DHPP 20 μM) it was 31.19 nM/min. Also, the antimicrobial activity result in the data set “Antimicrobial activity” is “lacks antimicrobial activity”. For the same molecule, in “Aqueous solubility”, the aqueous solubility entry is on record as “limited aqueous solubility”. This molecule also displayed a Kd at BaDHPS [5] of 130 ± 1 µM. Also, on BaDHPS [5], the “increase in binding affinity of pABA to DHPS in the presence of 11” value is 2 fold. Moreover, the results for the IC50 against BaDHPS [6], against SaDHPS [7] and against YpDHPS [8] were 50 µM, 17 µM and 31 µM, respectively. For the same molecule, the inhibition at 250 µM at BaDHPS [6] (read-out: inhibition of BaDHPS), on SaDHPS [7] (read-out: inhibition of SaDHPS) and on YpDHPS [8] (read-out: inhibition of YpDHPS) was 100% each time.
